From ChEMBL document CHEMBL5143739, “Design and Discovery of MRTX0902, a Potent, Selective, Brain-Penetrant, and Orally Bioavailable Inhibitor of the SOS1:KRAS Protein-Protein Interaction” (J Med Chem, 2022)

Experiments:
[1] = Inhibition of human recombinant SOS2 catalytic domain/human recombinant GST-KRAS G12C mutant expressed in Escherichia coli assessed as inhibition of interaction
[2] = In vivo inhibition of ERK phosphorylation in human MIA PaCa-2 cells harbouring KRAS G12C mutant xenografted in athymic nude Foxn1 nu mouse assessed as phosphorylated ERK level at 10 mg/kg, po qd measured after 4 hrs relative to total ERK; type: functional
[3] = Free plasma concentration in CD-1 mouse at 100 mg/kg, po measured on 1 hr; type: ADME, organism-based; settings: in vivo
[4] = In vivo inhibition of ERK phosphorylation in human MIA PaCa-2 cells harbouring KRAS G12C mutant xenografted in athymic nude Foxn1 nu mouse assessed as phosphorylated ERK level at 10 mg/kg, po qd in presence of 50 mg/kg MRTX849 measured after 4 hrs relative to total ERK; type: functional
[5] = Inhibition of N-terminal his-tagged human recombinant SOS2/C-terminal Avi-biotinylated-tagged human recombinant KRAS expressed in Escherichia coli assessed as inhibition of GDP exchange rate by TR-FRET assay
[6] = In vivo inhibition of ERK phosphorylation in human MIA PaCa-2 cells harbouring KRAS G12C mutant xenografted in athymic nude Foxn1 nu mouse assessed as phosphorylated ERK level at 10 mg/kg, po qd in presence of 25 mg/kg MRTX849 measured after 4 hrs relative to total ERK; type: functional

## CNCc1ccccc1-c1csc([C@@H](C)Nc2nc(C)nc3cc(OC)c(OC)cc23)c1 [BAY-293]
[1]
  IC50: 0.021 µM

## C=C(F)C(=O)N1CCN(c2nc(OC[C@@H]3CCCN3C)nc3c2CCN(c2cccc4cccc(Cl)c24)C3)C[C@@H]1CC#N [ADAGRASIB]
[2]
  inhibition in vivo at 10 mg/kg: 21%

## Cc1c(C#N)cccc1[C@@H](C)Nc1nnc(C)c2cnc(N3CCOCC3)cc12 [MRTX-0902]
[3]
  Cp(f): 134 nM
[4]
  inhibition in vivo at 10 mg/kg: 81%
[5]
  IC50: > 10 µM
[6]
  inhibition in vivo at 10 mg/kg: 66%
